Data on 26 compounds can be found in patent publication EP4624465A1, “COMPOUND SERVING AS DDR1 KINASE INHIBITOR, AND MEDICINE” (Nippon Shinyaku Co., Ltd., priority 2022, dated 2024).

As a reminder, the IC50 is the midpoint of a concentration-inhibition curve.

Assay [1] concerns the target T1, DDR1 kinase (Homo sapiens, UniProt Q08345). Description: Evaluation of DDR1 kinase inhibition (LANCE Ultra TR-FRET kinase assay). Format: biochemical. On the set-up: purchased Carna Biosciences 08-113. The conditions noted are these: DDR1 protein 0.5 nM, LANCE Ultra ULight-poly GAT substrate, 2 hours at room temperature, duplicate; read-out: DDR-1 IC50. (In general: Time-resolved FRET reads energy transfer from a long-lived donor to a nearby acceptor.)
Target sequence in this assay (Q08345 19-876 isoform Q08345-2 limits assumed): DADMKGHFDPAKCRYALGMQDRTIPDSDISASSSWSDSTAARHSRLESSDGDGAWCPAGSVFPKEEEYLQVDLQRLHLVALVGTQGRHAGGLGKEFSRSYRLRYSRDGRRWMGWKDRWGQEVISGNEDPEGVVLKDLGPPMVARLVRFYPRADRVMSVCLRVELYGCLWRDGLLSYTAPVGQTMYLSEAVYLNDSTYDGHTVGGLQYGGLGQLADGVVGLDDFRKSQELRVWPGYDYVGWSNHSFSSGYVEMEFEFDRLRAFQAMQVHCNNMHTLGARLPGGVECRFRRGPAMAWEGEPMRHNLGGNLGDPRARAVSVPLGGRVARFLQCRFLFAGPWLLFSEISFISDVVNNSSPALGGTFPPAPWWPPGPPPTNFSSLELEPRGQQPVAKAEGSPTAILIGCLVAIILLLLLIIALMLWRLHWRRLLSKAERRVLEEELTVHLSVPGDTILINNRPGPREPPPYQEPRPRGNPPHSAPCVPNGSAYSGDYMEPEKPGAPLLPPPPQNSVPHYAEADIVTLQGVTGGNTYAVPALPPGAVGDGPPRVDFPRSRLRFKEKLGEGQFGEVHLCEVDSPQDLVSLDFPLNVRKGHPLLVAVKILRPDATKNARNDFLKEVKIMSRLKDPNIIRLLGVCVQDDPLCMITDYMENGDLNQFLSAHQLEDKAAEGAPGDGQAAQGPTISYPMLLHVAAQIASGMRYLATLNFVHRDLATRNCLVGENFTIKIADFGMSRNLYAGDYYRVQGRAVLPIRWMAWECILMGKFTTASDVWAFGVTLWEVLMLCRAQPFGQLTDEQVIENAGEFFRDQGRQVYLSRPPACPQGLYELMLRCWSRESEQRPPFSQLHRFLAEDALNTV

Assay [2] addresses T1, DDR1 kinase. In words: Evaluation of DDR1 kinase inhibition in DDR1-expressing U2OS cells (type I collagen stimulation, PathHunter detection). Format: cell-based. On the set-up: host or cells: U2OS. Particulars: type I collagen 50 µg/mL stimulation, duplicate, read-out: DDR-1 IC50.
Target sequence in this assay (Q08345 19-913): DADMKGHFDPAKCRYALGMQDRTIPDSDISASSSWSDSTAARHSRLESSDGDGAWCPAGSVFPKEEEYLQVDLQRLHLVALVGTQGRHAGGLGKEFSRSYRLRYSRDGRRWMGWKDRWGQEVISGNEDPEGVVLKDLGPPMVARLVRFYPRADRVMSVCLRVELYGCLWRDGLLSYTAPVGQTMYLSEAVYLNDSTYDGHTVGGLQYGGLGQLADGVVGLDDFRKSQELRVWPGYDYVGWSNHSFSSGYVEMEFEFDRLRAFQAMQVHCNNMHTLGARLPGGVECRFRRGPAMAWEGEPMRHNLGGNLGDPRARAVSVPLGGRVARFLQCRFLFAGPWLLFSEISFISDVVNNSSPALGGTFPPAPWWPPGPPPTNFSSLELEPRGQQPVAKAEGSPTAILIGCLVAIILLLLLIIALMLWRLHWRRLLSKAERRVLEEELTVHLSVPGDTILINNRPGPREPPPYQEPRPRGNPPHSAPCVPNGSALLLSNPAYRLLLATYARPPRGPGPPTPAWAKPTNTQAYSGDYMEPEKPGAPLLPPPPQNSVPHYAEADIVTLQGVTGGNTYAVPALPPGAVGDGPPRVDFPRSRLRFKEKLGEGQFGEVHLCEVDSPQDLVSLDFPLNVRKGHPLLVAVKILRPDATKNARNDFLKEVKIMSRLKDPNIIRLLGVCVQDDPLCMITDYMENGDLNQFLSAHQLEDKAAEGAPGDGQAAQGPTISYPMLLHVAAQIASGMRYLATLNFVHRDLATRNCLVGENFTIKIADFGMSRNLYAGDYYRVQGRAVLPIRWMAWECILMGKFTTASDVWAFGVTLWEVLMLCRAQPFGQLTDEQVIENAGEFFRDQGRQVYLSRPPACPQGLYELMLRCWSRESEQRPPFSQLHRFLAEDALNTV

Structures are written as SMILES. Counter-ions that a name gives are not always drawn.

`O=C(c1ccnc(NC2CCOCC2)c1)N1CC(c2nn(CC(=O)N3CCC[C@H]3C(F)(F)F)c3cc(F)cc(F)c23)C1` [Compound E-88, 2-[4,6-difluoro-3-(1-{2-[(oxan-4-yl)amino]pyridine-4-carbonyl}azetidin-3-yl)-1H-indazol-1-yl]-1-[(2S)-2-(trifluoromethyl)pyrrolidin-1-yl]ethan-1-one]: the IC50 was 21 nM on DDR1 kinase [1] and 1400 nM at DDR1 kinase [2].
As for `Nc1cc(C(=O)N2CC(c3nn(Cc4cn(Cc5ccccc5)nn4)c4cccc(F)c34)C2)ccn1` [Compound E-35, 4-(3-{1-[(1-benzyl-1H-1,2,3-triazol-4-yl)methyl]-4-fluoro-1H-indazol-3-yl}azetidine-1-carbonyl)pyridin-2-amine hydrochloride], the IC50 at DDR1 kinase [1] came out at 31 nM; on DDR1 kinase [2], 2000 nM.
The corresponding values for `Nc1cc(C(=O)N2CC(c3nn(Cc4noc(-c5ccc(F)cc5)n4)c4cccc(F)c34)C2)ccn1` [Compound E-116, 4-[3-(4-fluoro-1-{[5-(4-fluorophenyl)-1,2,4-oxadiazol-3-yl]methyl}-1H-indazol-3-yl)azetidine-1-carbonyl]pyridin-2-amine] are 4.4 nM and 800 nM.
With `Nc1cc(C(=O)N2CC(c3nn(CC(=O)N4CCC(F)(F)CC4)c4ccccc34)C2)c(F)cn1` [Compound E-257, 2-{3-[1-(2-amino-5-fluoropyridine-4-carbonyl)azetidin-3-yl]-1H-indazol-1-yl}-1-(4,4-difluoropiperidin-1-yl)ethan-1-one], the IC50 worked out at 13 nM on DDR1 kinase [1] and 42 nM on DDR1 kinase [2].
The corresponding values for `O=C(Cn1nc(C2CN(C(=O)c3cc(NC4CC4)ncn3)C2)c2c(F)cc(F)cc21)NCC(F)(F)F` [Compound E-31, 2-(3-{1-[6-(cyclopropylamino)pyrimidine-4-carbonyl]azetidin-3-yl}-4,6-difluoro-1H-indazol-1-yl)-N-(2,2,2-trifluoroethyl)acetamide] are 21 nM and 690 nM.
In the case of `CN(C(=O)Cn1nc(C2CN(C(=O)c3cc(N)ncc3F)C2)c2ccccc21)C1CC(F)(F)C1` [Compound E-250, 2-{3-[1-(2-amino-5-fluoropyridine-4-carbonyl)azetidin-3-yl]-1H-indazol-1-yl}-N-(3,3-difluorocyclobutyl)-N-methylacetamide], the IC50 on DDR1 kinase [1] was determined as 2 nM; on DDR1 kinase [2] it was 17 nM.
The corresponding values for `O=C(c1cnn2ccsc12)N1CC(c2nn(CC(=O)N3CCC[C@H]3C(F)(F)F)c3cc(F)cc(F)c23)C1` [Compound E-102] are 13 nM and 3300 nM.
For the compound `CN(CC(F)(F)F)C(=O)Cn1nc(C2CN(C(=O)c3nc(N)ncc3F)C2)c2cc(Cl)ccc21` [Compound E-21, 2-{3-[1-(2-amino-5-fluoropyrimidine-4-carbonyl)azetidin-3-yl]-5-chloro-1H-indazol-1-yl}-N-methyl-N-(2,2,2-trifluoroethyl)acetamide], the IC50 at DDR1 kinase [1] worked out at 1.5 nM; at DDR1 kinase [2] it was 140 nM.
The corresponding values for `Nc1cc(C(=O)N2CC(c3nn(CC(=O)N4CCC[C@H]4C(F)(F)F)c4cccc(F)c34)C2)ccn1` [Compound E-96, 2-{3-[1-(2-aminopyridine-4-carbonyl)azetidin-3-yl]-4-fluoro-1H-indazol-1-yl}-1-[(2S)-2-(trifluoromethyl)pyrrolidin-1-yl]ethan-1-one] are 0.9 nM and 84 nM.
Take `O=C(Cn1nc(C2CN(C(=O)c3ccnc(NC4CCC4)c3)C2)c2c(F)cccc21)NCC(F)(F)F` [Compound E-68, 2-(3-{1-[2-(cyclobutylamino)pyridine-4-carbonyl]azetidin-3-yl}-4-fluoro-1H-indazol-1-yl)-N-(2,2,2-trifluoroethyl)acetamide hydrochloride]: the IC50 was 3.8 nM on DDR1 kinase [1] and 8 nM on DDR1 kinase [2].
The corresponding values for `Cc1c(C(=O)N2CC(c3nn(CC(=O)N4CCO[C@@H](C(F)(F)F)C4)c4cc(F)cc(F)c34)C2)ccnc1N` [Compound E-51, 2-{3-[1-(2-amino-3-methylpyridine-4-carbonyl)azetidin-3-yl]-4,6-difluoro-1H-indazol-1-yl}-1-[(2R)-2-(trifluoromethyl)morpholin-4-yl]ethan-1-one hydrochloride] are 12 nM and 400 nM.
The corresponding values for `Nc1cc(C(=O)N2CC(c3nn(CC(=O)N4CCO[C@@H](C(F)(F)F)C4)c4cc(F)cc(F)c34)C2)c(F)cn1` [Compound E-42, 2-{3-[1-(2-amino-5-fluoropyridine-4-carbonyl)azetidin-3-yl]-4,6-difluoro-1H-indazol-1-yl)-1-[(2R)-2-(trifluoromethyl)morpholin-4-yl]ethan-1-one] are 3.2 nM and 150 nM.
For `Nc1cc(C(=O)N2CCC(c3nn(CC(=O)N4CCC[C@H]4C(F)(F)F)c4cccc(F)c34)CC2)ccn1` [Compound E-81, 2-{3-[1-(2-aminopyridine-4-carbonyl)piperidin-4-yl]-4-fluoro-1H-indazol-1-yl}-1-[(28)-2-(trifluoromethyl)pyrrolidin-1-yl]ethan-1-one], the IC50 came to 1.5 nM on DDR1 kinase [1] and 61 nM at DDR1 kinase [2].
The corresponding values for `Nc1cc(C(=O)N2CCC(c3nn(CC(=O)N4CCO[C@H](C(F)(F)F)C4)c4cccc(F)c34)CC2)ccn1` [Compound E-90, 2-{3-[1-(2-aminopyridine-4-carbonyl)piperidin-4-yl]-4-fluoro-1H-indazol-1-yl]-1-[(2S)-2-(trifluoromethyl)morpholin-4-yl]ethan-1-one] are 7.4 nM and 96 nM.
The corresponding values for `Nc1cc(C(=O)N2CC(c3nn(Cc4nc(C(F)(F)F)no4)c4ccccc34)C2)c(F)cn1` [Compound E-18, 5-fluoro-4-[3-(1-{[3-(trifluoromethyl)-1,2,4-oxadiazol-5-yl]methyl}-1H-indazol-3-yl)azetidine-1-carbonyl]pyridin-2-amine] are 6.9 nM and 26 nM.
Take `O=C(c1ccc2[nH]nnc2c1)N1CC(c2nn(CC(=O)N3CCC[C@H]3C(F)(F)F)c3cc(F)cc(F)c23)C1` [Compound E-169, 2-{3-[1-(1H-1,2,3-benztriazole-5-carbonyl)azetidin-3-yl]-4,6-difluoro-1H-indazol-1-yl}-1-[(2S)-2-(trifluoromethyl)pyrrolidin-1-yl]ethan-1-one]: the results for the IC50 on DDR1 kinase [1] and on DDR1 kinase [2] were 9.8 nM and 1100 nM, respectively.
The corresponding values for `Nc1cc(C(=O)N2CCC(c3cn(CC(=O)N4CCC[C@H]4C(F)(F)F)c4cccc(F)c34)CC2)ccn1` [Compound E-108, 2-{3-[1-(2-aminopyridine-4-carbonyp)piperidin-4-yl]-4-fluoro-1H-indol-1-yl}-1-[(2S)-2-(trifluoromethyl)pyrrolidin-1-yl]ethan-1-one] are 1 nM and 100 nM.
The corresponding values for `Nc1cc(C(=O)N2CC(c3nn(CC(=O)N4CCC[C@@H]4C(F)(F)F)c4cc(F)cc(F)c34)C2)ccn1` [Compound E-50, 2-{3-[1-(2-aminopyridine-4-carbonyl)azetidin-3-yl]-4,6-difluoro-1H-indazol-1-yl]-1-[(2R)-2-(trifluoromethyl)pyrrolidin-1-yl]ethan-1-one] are 28 nM and 1900 nM.
With `C[C@H]1CN(C(=O)Cn2nc(C3CN(C(=O)c4ccnc(N)c4)C3)c3c(F)cc(F)cc32)CCO1` [Compound E-79, 2-{3-[1-(2-aminopyridine-4-carbonyl)azetidin-3-yl]-4,6-difluoro-1H-indazol-1-yl}-1-[(2S)-2-methylmorpholin-4-yl]ethan-1-one hydrochloride], the IC50 is 35 nM at DDR1 kinase [1] and 3400 nM on DDR1 kinase [2].
The corresponding values for `Nc1cc(C(=O)N2CC(c3nn(CC(=O)NC4CC4(F)F)c4ccccc34)C2)c(F)cn1` (stereo not shown) [Compound E-248, 2-{3-[1-(2-amino-5-fluoropyridine-4-carbonyl)azetidin-3-yl]-1H-indazol-1-yl}-N-(2,2-difluorocyclopropyl)acetamide] are 11 nM and 510 nM.
The corresponding values for `CC(C)N(C)C(=O)Cn1nc(C2CN(C(=O)c3cc(N)ncc3F)C2)c2ccccc21` [Compound E-253, 2-{3-[1-(2-amino-5-fluoropyridine-4-carbonyl)azetidin-3-yl]-1H. indazol-1-yl}-N-methyl-N-(propan-2-yl)acetamide] are 9.5 nM and 170 nM.
The corresponding values for `C[C@@H]1CN(C(=O)Cn2nc(C3CN(C(=O)c4ccnc(N)c4)C3)c3c(F)cc(F)cc32)C[C@H](C)O1` [Compound E-84, 2-{3-[1-(2-aminopyridine-4-carbonyl)azetidin-3-yl)-4,6-difluoro-1H-indazol-1-yl}-1-[(2R,68)-2,6-dimethylmorpholin-4-yl]ethan-1-one] are 0.3 nM and 2300 nM.
Consider `Nc1cc(C(=O)N2CC(c3nn(Cc4nc(-c5ccc(F)cc5)no4)c4cccc(F)c34)C2)ccn1` [Compound E-104, 4-[3-(4-fluoro-1-{[3-(4-fluorophenyl)-1,2,4-oxadiazol-5-yl]methyl}-1H-indazol-3-yl)azetidine,1-carbonyl)pyridin-2-amine], for which the 50% inhibitory concentration (IC50) was 5.2 nM on DDR1 kinase [1] and 110 nM at DDR1 kinase [2].
With `CN(CC(F)(F)F)C(=O)Cn1nc(C2CN(C(=O)c3cc(N)ncc3F)C2)c2c(F)cccc21` [Compound E-59, 2-{3-[1-(2-amino-5-fluoropyridine-4-carbonyl)azetidin-3-yl]-4-fluoro-1H-indazol-1-yl}-N-methyl-N-(2,2,2-trifluoroethyl)acetamide], the IC50 is 5.4 nM at DDR1 kinase [1] and 170 nM on DDR1 kinase [2].
Consider `CN(CC(F)(F)F)C(=O)Cn1nc(C2CN(C(=O)c3ccnc(N)c3)C2)c2c(F)cccc21` [Compound E-87, 2-{3-[1-(2-aminopyridine-4-carbonyl)azetidin-3-yl]-4-fluoro-1H-indazol-1-yl}-N-methyl-N-(2,2,2-trifluoroethyl)acetamide], for which the IC50 on DDR1 kinase [1] worked out at 22 nM; at DDR1 kinase [2], 93 nM.
The corresponding values for `Nc1cc(C(=O)N2CC(c3nn(CC(=O)N4CCO[C@@H](C(F)(F)F)C4)c4cncc(F)c34)C2)ccn1` [Compound E-100] are 34 nM and 110 nM.
